Measured values published in patent US10189887B2, “Polypeptides and uses thereof for reducing CD95-mediated cell motility” (INSERM (INSTITUT NATIONAL DE LA SANTÉ ET DE LA RECHERCHE …, priority 2014, dated 2019).

How the values were obtained:
[1] = system: CD95-mediated Ca^2+ response; experiment: Calcium response to cl-CD95L in MDA MB 231 cells; assay type: cell-based; conditions: MDA MB 231 pre-incubated 1 hr, 10 μM peptide; 100 ng/ml cl-CD95L
Description: Cells were loaded with Fura2-AM (1 μM) at resting temperature for 30 min in Hank's Balanced Salt Solution (HBSS). After washing with HBSS, the cells were incubated for 15 min in the absence of Fura2-AM to complete de-esterification of the dye. Cells were placed in a thermostated chamber (37° C.) of an inverted epifluorescence microscope (Olympus IX70) equipped with a ×40, UApo/340-1.15 W water-immersion objective (Olympus), and fluorescence micrograph images were captured at 510 nm and at 12-bit resolution by a fast-scan camera (CoolSNAP fx Monochrome, Photometrics). To minimize UV light exposure, 4×4 binning function was used. Fura2-AM was alternately excited at 340 and 380 nm, and ratios of the resulting images (excitations at 340 and 380 nm and emission filter at 520 nm) were produced at constant intervals (5 s or 10 s according to the stimulus). […] Fluorescent images were pseudocolored using the IMD display mode in MetaFluor and assembled without further manipulation in Photoshop (Adobe). Raw data were acquired with MetaFluor and graphed in Origin (OriginLab). […]

[2] = system: CD95-mediated Ca^2+ response; experiment: Calcium response to cl-CD95L in CEM cells; assay type: cell-based; conditions: CEM pre-incubated 1 hr, 10 μM peptide, 100 ng/ml cl-CD95L
Description: Cells were loaded with Fura2-AM (1 μM) at resting temperature for 30 min in Hank's Balanced Salt Solution (HBSS). After washing with HBSS, the cells were incubated for 15 min in the absence of Fura2-AM to complete de-esterification of the dye. Cells were placed in a thermostated chamber (37° C.) of an inverted epifluorescence microscope (Olympus IX70) equipped with a ×40, UApo/340-1.15 W water-immersion objective (Olympus), and fluorescence micrograph images were captured at 510 nm and at 12-bit resolution by a fast-scan camera (CoolSNAP fx Monochrome, Photometrics). To minimize UV light exposure, 4×4 binning function was used. […]
T cells were loaded with Fura-PE3-AM (1 μM) at room temperature for 30 min in Hank's Balanced Salt Solution (HBSS). […] Cells were placed in the temperature controlled chamber (37° C.) of an inverted epifluorescence microscope (Olympus IX70) equipped with an ×40 UApo/340-1.15 W water-immersion objective (Olympus), and fluorescence micrograph images were captured at 510 nm and 12-bit resolution by a fast-scan camera (CoolSNAP fx Monochrome, Photometrics). […] The Fura-PE3 ratio (Fratio 340/380) images were analyzed offline with Universal Imaging software, including Metafluor and Metamorph. […] Each experiment was repeated 3 times, and the average of more than 20 single-cell traces was analyzed.

Th17 cells = experiment: Endothelial transmigration of CD4 T-cell subsets (Th17, Th1, Treg), Boyden chamber; assay type: cell-based, human; conditions: indicated concentrations of peptide, Boyden Chamber assay
Description: Animal experiments were subject to ethical review by the University of Nottingham were appropriate and conducted using PPL 40/3412 in accordance with the UK Home Office guidance and under ASPA (1986). For the generation of murine T-cell subsets, spleens were removed from C57Bl/6 mice and single cell suspensions prepared. CD4^+CD62L^+ naïve cells were isolated using Miltenyi Biotec microbeads. Naïve human CD4^+ T-cells were prepared using the Miltenyi Biotec naïve CD4^+ T-cell isolation kit II, which are sorted produced a 99% pure population of CD4^+CD45RA^+ cells. Purified cells were cultured in complete IMDM media all with α-CD3 (1 μg/ml), α-CD28 (2 μg/ml), and as follows; Th1 cells IL-12 (10 ng/ml) with α-IL-4 (10 μg/ml), Th2 cells IL-4 (10 ng/ml) and α-IFN-γ (10 μg/ml), Th17 cells Il-6 (10 ng/ml), TGF-β1 (2 ng/ml), α-IFN-γ (10 μg/ml) with α-IL-4 (10 μg/ml), and Tregs IL-2 (10 ng/ml) TGF-β1 (5 ng/ml), α-IFN-γ (10 μg/ml) and α-IL-4 (10 μg/ml). Cells were converted to T-cell subsets over five days as outlined above. All cytokines were supplied by PeproTech (London, UK). Mouse CD3 (clone 2C11); human CD3 (UCHT1); mouse CD28 (37.51); human CD28 (CD28.2); mouse IL-4 (11B11); human IL-4 (MP4-25D2); mouse IFN-γ (XMG1.2); human IFN-γ B27 came from BD Pharmigen.
After hydration of the Boyden chamber membranes containing 3 μm pore size membranes (Millipore, Molsheim, France), activated T-lymphocytes (10^6) were added to the top chamber on a confluent monolayer of HUVEC in a low serum (1%)-containing medium. […] In experiments using human sera, 500 μl of serum from either healthy donors or SLE patients was added in the lower reservoir. Cells were cultured for 24 h at 37° C. in a 5% CO2 humidified incubator. Transmigrated cells were counted in the lower reservoir by flow cytometry using a standard of 2.5×10^4 fluorescent beads (Flow-count, Beckman Coulter).
Blocking antibodies were used against E-selectin and ICAM-1 in the CHEMICON® endothelial cell adhesion assay (Millipore). Briefly, after activation of the endothelial cell layer with TNF-α, anti-mouse Ig controls, anti-E-selectin or anti-ICAM-1 were added at final concentrations of 10 μg/ml. Thereafter calcein-AM-stained T-cell subsets were incubated for 24 hours and unbound cells are washed. Cells attached to the endothelium were assessed using fluorescence plate reader.

For “TAT-CID: cell penetrating peptide linking the 36-amino acid-stretch of CID (CD95 residues 175 to 210) to the HIV-TAT sequence; SEQ ID NO: 6 (RKKRRQRRRKRKEVQKTCRKHRKENQGSHESPTLNPETVAINLSD; TAT-CID)”, the “calcium response to cl-CD95L” value [1] was “completely abolished the calcium response”, the “calcium response to cl-CD95L” value [2] was “abolished the induction of the CD95-mediated Ca^2+ signal” and the “calcium response to cl-CD95L” value ([2]; listed as TAT CID 175-210) was “completely abolished the calcium response”. The “CD95-mediated endothelial transmigration of Th17 cells” value (Th17 cells) was “inhibited the CD95-mediated endothelial transmigration of human Th17 cells in a dose-dependent manner”.
